Experiments:
[1] = Pharmacokinetics in SD rats after oral administration of FA extract, NA, NHE or NA-NHE (UPLC-MS/MS of plasma, DAS 3.1); assay type: in vivo, Sprague-Dawley (SD) rats; settings: for AUC(0-t) / AUC(0-∞) / CL/F / Ka / V1/F / t1/2(Ka) / t1/2α / t1/2β: n = 6
Procedure: The 20 μl of β-glucuronidase and 15 μl of sulfatase were added into 50 μl of plasma sample. After vortexed for 30 s, the mixture was incubated at 37°C for 2 h in a water bath, then placed in ice water for 5 min to terminate the reaction ([Xu et al., 2019]). IS solution (20 µl, 5 μg/ml) and acetonitrile (1.0 ml) were added into the mixture and vortexed for 2 min. […] Rats were randomly divided into the following four groups (6 rats in each group): naringin (NA), neohesperidin (NHE), naringin-neohesperidin (NA-NHE), and FA extract group. The oral administration doses were selected according to the literatures ([Tong et al., 2012]; [Yang et al., 2012]; [Committee of National Pharmacopoeia of RP China, 2015]; [Wang et al., 2018]; [Zhang et al., 2018]; [Chen et al., 2019]), the contents of the five components in FA, and the preliminary experiments. The specific doses were as follows: […] The rats had free access to water during the experiment. The blood samples were then immediately centrifuged at 4,000 rpm for 10 min. The plasma was frozen and stored at −80°C until analysis. The plasma concentration of the studied compounds was determined according to the daily calibration curve.

[2] = set-up: method as in Wang et al., 2018; settings: after orally administering 30 g/kg FA decoction; ref Wang et al., 2018; cited from earlier work
[3] = SD rats, oral compatibility NA-NHE (naringin 1.85 g/kg and neohesperidin 1.81 g/kg), two-compartment parameters
[4] = SD rats, oral monomer (naringin 1.85 g/kg or neohesperidin 1.81 g/kg), two-compartment parameters
[5] = male SD rats, oral FA extract 10.8 g/kg of the original medicinal material, two-compartment model parameters

Compound: COc1ccc([C@@H]2CC(=O)c3c(O)cc(O[C@@H]4O[C@H](CO)[C@@H](O)[C@H](O)[C@H]4O[C@@H]4O[C@@H](C)[C@H](O)[C@@H](O)[C@H]4O)cc3O2)cc1O [NHE, neohesperidin]
- AUC(0-t) [1, 3]: 3475.14 ± 714.19 ng·h/mL
- AUC(0-∞) [1, 3]: 3557.64 ± 726.84 ng·h/mL
- CL/F [1, 3]: 60.5 ± 13.3 mL/min/kg
- Ka [1, 3]: 4.40 ± 0.83 h⁻¹
- V1/F [1, 3]: 4.37 ± 1.16 L/kg
- t1/2(Ka) [1, 3]: 0.57 ± 0.11 h
- t1/2α [1, 3]: 3.22 ± 0.42 h
- t1/2β [1, 3]: 3.43 ± 0.55 h
- AUC(0-t) [1, 4]: 2932.05 ± 625.03 ng·h/mL
- AUC(0-∞) [1, 4]: 2988.05 ± 621.39 ng·h/mL
- CL/F [1, 4]: 91.5 ± 12.2 mL/min/kg
- Ka [1, 4]: 1.64 ± 0.35 h⁻¹
- V1/F [1, 4]: 4.58 ± 1.18 L/kg
- t1/2(Ka) [1, 4]: 0.96 ± 0.08 h
- t1/2α [1, 4]: 4.39 ± 0.47 h
- t1/2β [1, 4]: 4.61 ± 0.48 h
- AUC(0-t) [1, 5]: 4345.39 ± 704.69 ng·h/mL
- AUC(0-∞) [1, 5]: 4421.59 ± 723.98 ng·h/mL
- CL/F [1, 5]: 68.2 ± 18.3 mL/min/kg
- Ka [1, 5]: 3.17 ± 0.93 h⁻¹
- V1/F [1, 5]: 7.17 ± 1.40 L/kg
- t1/2(Ka) [1, 5]: 0.26 ± 0.07 h
- t1/2α [1, 5]: 3.47 ± 0.51 h
- t1/2β [1, 5]: 3.86 ± 0.32 h
- Shape of the plasma concentration-time profile ([1]; rats, oral administration, naringin and neohesperidin determined as naringenin and hesperetin): Double-peak phenomenon
- Detection in rat plasma [2]: could not been detected

Source: PMC7319089, “Multi-Component Comparative Pharmacokinetics in Rats After Oral Administration of Fructus aurantii Extract, Naringin, Neohesperidin, and Naringin-Neohesperidin” (Frontiers in Pharmacology, 2020)
